# Reference: the supplement of paper PMC10307832
# What was measured:
# Assay in all cases: relative viability (nuclei count vs DMSO), 5 days (fraction); higher = more cells survive
# LXF-289 = tested on: LXF-289
# Summary of the method: (§1)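 Lung cancer cell lines were seeded in 1536-well plates and dosed by pin tool the next day, with either a single drug or a fixed anchor-drug dose combined with five library-drug doses (not always all listed) spaced in √10 steps. Five days later, one step fixed the cells and stained their nuclei (final 0.05% Triton X-100, 1% formaldehyde, 1 ug/ml Hoechst), and nuclei were counted on 4× images. Relative viability is the nuclei count in treated wells divided by the count in vehicle wells, and each value is the median of duplicate plates.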
# NCI-H460 = tested on: NCI-H460
# Summary of the method: as §1
# NCI-H1734 = tested on: NCI-H1734
# Summary of the method: as §1
# 201T = tested on: 201T
# Summary of the method: as §1
# NCI-H1437 = tested on: NCI-H1437
# Summary of the method: as §1
# NCI-H1651 = tested on: NCI-H1651
# Summary of the method: as §1
# H3255 = tested on: H3255
# Summary of the method: as §1
# NCI-H23 = tested on: NCI-H23
# Summary of the method: as §1
# SW 900 = tested on: SW 900
# Summary of the method: as §1
# NCI-H441 = tested on: NCI-H441
# Summary of the method: as §1
# EMC-BAC-2 = tested on: EMC-BAC-2
# Summary of the method: as §1
# UMC-11 = tested on: UMC-11
# Summary of the method: as §1
# NCI-H2342 = tested on: NCI-H2342
# Summary of the method: as §1
# ChaGo-K-1 = tested on: ChaGo-K-1
# Summary of the method: as §1
# NCI-H838 = tested on: NCI-H838
# Summary of the method: as §1
# NCI-H2085 = tested on: NCI-H2085
# Summary of the method: as §1
# NCI-H1975 = tested on: NCI-H1975
# Summary of the method: as §1
# HOP-62 = tested on: HOP-62
# Summary of the method: as §1
# NCI-H1755 = tested on: NCI-H1755
# Summary of the method: as §1
# NCI-H2405 = tested on: NCI-H2405
# Summary of the method: as §1
# NCI-H2347 = tested on: NCI-H2347
# Summary of the method: as §1
# NCI-H2023 = tested on: NCI-H2023
# Summary of the method: as §1
compound,measurement,setting,value
C=C1C(=O)O[C@@H](CCCCCCCC)[C@@H]1C(=O)O [C-75] + Nc1ncn([C@H]2C[C@H](O)[C@@H](CO)O2)c(=O)n1 [Decitabine] (partner 2 µM),relative viability,LXF-289; first compound 0.08 µM,0.361
same,relative viability,LXF-289; first compound 0.253 µM,0.396
same,relative viability,LXF-289; first compound 0.8 µM,0.317
same,relative viability,LXF-289; first compound 2.53 µM,0.3
same,relative viability,LXF-289; first compound 8 µM,0.399
same,relative viability,NCI-H460; first compound 0.08 µM,0.469
same,relative viability,NCI-H460; first compound 0.253 µM,0.454
same,relative viability,NCI-H460; first compound 0.8 µM,0.46
same,relative viability,NCI-H460; first compound 2.53 µM,0.198
same,relative viability,NCI-H460; first compound 8 µM,0.492
same,relative viability,NCI-H1734; first compound 0.08 µM,0.516
same,relative viability,NCI-H1734; first compound 0.253 µM,0.589
same,relative viability,NCI-H1734; first compound 0.8 µM,0.457
same,relative viability,NCI-H1734; first compound 2.53 µM,0.264
same,relative viability,NCI-H1734; first compound 8 µM,0.448
same,relative viability,201T; first compound 0.08 µM,0.844
same,relative viability,201T; first compound 0.253 µM,0.938
same,relative viability,201T; first compound 0.8 µM,0.842
same,relative viability,201T; first compound 2.53 µM,0.627
same,relative viability,201T; first compound 8 µM,0.813
same,relative viability,NCI-H1437; first compound 0.08 µM,0.57
same,relative viability,NCI-H1437; first compound 0.253 µM,0.586
same,relative viability,NCI-H1437; first compound 0.8 µM,0.577
same,relative viability,NCI-H1437; first compound 8 µM,0.48
same,relative viability,NCI-H1651; first compound 0.08 µM,0.565
same,relative viability,NCI-H1651; first compound 0.253 µM,0.685
same,relative viability,NCI-H1651; first compound 0.8 µM,0.559
same,relative viability,NCI-H1651; first compound 2.53 µM,0.381
same,relative viability,NCI-H1651; first compound 8 µM,0.599
same,relative viability,H3255; first compound 0.08 µM,0.535
same,relative viability,H3255; first compound 0.253 µM,0.599
same,relative viability,H3255; first compound 0.8 µM,0.74
same,relative viability,H3255; first compound 2.53 µM,0.585
same,relative viability,H3255; first compound 8 µM,0.652
same,relative viability,NCI-H23; first compound 0.08 µM,0.307
same,relative viability,NCI-H23; first compound 0.253 µM,0.334
same,relative viability,NCI-H23; first compound 0.8 µM,0.308
same,relative viability,NCI-H23; first compound 2.53 µM,0.249
same,relative viability,NCI-H23; first compound 8 µM,0.247
same,relative viability,SW 900; first compound 0.08 µM,0.413
same,relative viability,SW 900; first compound 0.253 µM,0.489
same,relative viability,SW 900; first compound 0.8 µM,0.46
same,relative viability,SW 900; first compound 2.53 µM,0.401
same,relative viability,SW 900; first compound 8 µM,0.403
same,relative viability,NCI-H441; first compound 0.08 µM,0.299
same,relative viability,NCI-H441; first compound 0.253 µM,0.23
same,relative viability,NCI-H441; first compound 0.8 µM,0.287
same,relative viability,NCI-H441; first compound 8 µM,0.212
same,relative viability,EMC-BAC-2; first compound 0.08 µM,1.02
same,relative viability,EMC-BAC-2; first compound 0.253 µM,0.984
same,relative viability,EMC-BAC-2; first compound 0.8 µM,0.983
same,relative viability,EMC-BAC-2; first compound 2.53 µM,0.834
same,relative viability,EMC-BAC-2; first compound 8 µM,0.947
same,relative viability,UMC-11; first compound 0.08 µM,0.696
same,relative viability,UMC-11; first compound 0.253 µM,0.642
same,relative viability,UMC-11; first compound 0.8 µM,0.577
same,relative viability,UMC-11; first compound 2.53 µM,0.642
same,relative viability,UMC-11; first compound 8 µM,0.434
same,relative viability,NCI-H2342; first compound 0.08 µM,0.749
same,relative viability,NCI-H2342; first compound 0.253 µM,0.785
same,relative viability,NCI-H2342; first compound 0.8 µM,0.667
same,relative viability,NCI-H2342; first compound 2.53 µM,0.57
same,relative viability,NCI-H2342; first compound 8 µM,0.722
same,relative viability,ChaGo-K-1; first compound 0.08 µM,0.505
same,relative viability,ChaGo-K-1; first compound 0.253 µM,0.504
same,relative viability,ChaGo-K-1; first compound 0.8 µM,0.503
same,relative viability,ChaGo-K-1; first compound 2.53 µM,0.423
same,relative viability,ChaGo-K-1; first compound 8 µM,0.552
same,relative viability,NCI-H838; first compound 0.08 µM,0.445
same,relative viability,NCI-H838; first compound 0.253 µM,0.45
same,relative viability,NCI-H838; first compound 0.8 µM,0.434
same,relative viability,NCI-H838; first compound 2.53 µM,0.369
same,relative viability,NCI-H838; first compound 8 µM,0.372
same,relative viability,NCI-H2085; first compound 0.08 µM,0.535
same,relative viability,NCI-H2085; first compound 0.253 µM,0.587
same,relative viability,NCI-H2085; first compound 0.8 µM,0.465
same,relative viability,NCI-H2085; first compound 2.53 µM,0.447
same,relative viability,NCI-H2085; first compound 8 µM,0.434
same,relative viability,NCI-H1975; first compound 0.08 µM,0.373
same,relative viability,NCI-H1975; first compound 0.253 µM,0.334
same,relative viability,NCI-H1975; first compound 0.8 µM,0.32
same,relative viability,NCI-H1975; first compound 2.53 µM,0.299
same,relative viability,NCI-H1975; first compound 8 µM,0.431
same,relative viability,HOP-62; first compound 0.08 µM,0.22
same,relative viability,HOP-62; first compound 0.253 µM,0.217
same,relative viability,HOP-62; first compound 0.8 µM,0.218
same,relative viability,HOP-62; first compound 2.53 µM,0.23
same,relative viability,HOP-62; first compound 8 µM,0.161
same,relative viability,NCI-H1755; first compound 0.08 µM,0.683
same,relative viability,NCI-H1755; first compound 0.253 µM,0.713
same,relative viability,NCI-H1755; first compound 0.8 µM,0.684
same,relative viability,NCI-H1755; first compound 2.53 µM,0.646
same,relative viability,NCI-H1755; first compound 8 µM,0.681
same,relative viability,NCI-H2405; first compound 0.08 µM,0.807
same,relative viability,NCI-H2405; first compound 0.253 µM,0.423
same,relative viability,NCI-H2405; first compound 0.8 µM,0.714
same,relative viability,NCI-H2405; first compound 2.53 µM,0.681
same,relative viability,NCI-H2405; first compound 8 µM,0.789
same,relative viability,NCI-H2347; first compound 0.08 µM,0.673
same,relative viability,NCI-H2347; first compound 0.253 µM,0.626
same,relative viability,NCI-H2347; first compound 0.8 µM,0.653
same,relative viability,NCI-H2347; first compound 2.53 µM,0.572
same,relative viability,NCI-H2347; first compound 8 µM,0.659
same,relative viability,NCI-H2023; first compound 0.08 µM,0.242
same,relative viability,NCI-H2023; first compound 0.253 µM,0.22
same,relative viability,NCI-H2023; first compound 0.8 µM,0.22
same,relative viability,NCI-H2023; first compound 8 µM,0.188
